Test results as given in patent US10316028B2, “Orexin receptor antagonists” (Heptares Therapeutics Limited, priority 2012, dated 2019).

Target: T1, human Orexin-2 receptor (Homo sapiens, UniProt O43614)
T1 construct: expressed in transfected cells; host or cells: HEK293 cells (transient transfection, Genejuice); membranes
T1 sequence (O43614 1-444): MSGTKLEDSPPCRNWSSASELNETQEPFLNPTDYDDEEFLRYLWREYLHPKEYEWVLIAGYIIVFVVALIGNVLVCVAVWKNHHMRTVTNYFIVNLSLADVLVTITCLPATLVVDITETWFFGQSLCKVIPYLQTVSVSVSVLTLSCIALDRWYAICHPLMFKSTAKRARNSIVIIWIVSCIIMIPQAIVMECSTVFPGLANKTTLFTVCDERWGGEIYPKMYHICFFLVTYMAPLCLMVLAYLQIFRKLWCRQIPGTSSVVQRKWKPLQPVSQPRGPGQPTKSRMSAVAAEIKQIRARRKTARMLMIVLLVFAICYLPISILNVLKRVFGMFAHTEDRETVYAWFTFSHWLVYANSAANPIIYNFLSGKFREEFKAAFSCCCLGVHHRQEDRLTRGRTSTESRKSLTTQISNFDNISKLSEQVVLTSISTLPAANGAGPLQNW
Assay: 3H-EMPA radioligand binding assay
Conditions: 3H-EMPA displacement, membranes of HEK293 cells transfected with human Orexin-2 receptor; KI by Cheng-Prussoff; read-out: OX2 pKi ave (converted)
Protocol: cDNA encoding the human Orexin-2 receptor was transfected into HEK293 cells using the transfection reagent Genejuice (Novagen). Forty-eight hours after transfection, cells were harvested and washed twice with ice cold phosphate-buffered saline. The pellet was resuspended in ice-cold buffer containing 20 mM Tris-HCl, pH 7.4, 1 mM EDTA and homogenised with an Ultraturax for 30 s at maximum speed. After centrifugation at 48,000 g for 30 min at 4° C., the pellet was resuspended and spun again. The final pellet was resuspended and frozen at −80° C. before use. Protein concentration was determined using the BCA protein assay method.
^3H-EMPA Radioligand Binding Assay
At the end of the incubation, membranes were filtered onto a unifilter, a 96-well white microplate with bonded GF/B filter pre-incubated with 0.5% polyethylenimine, with a Tomtec cell harvester and washed 4 times with distilled water. […] Radioactivity on the filter was counted (1 min) on a microbeta counter after addition of 50 µL of scintillation fluid. […] IC50 values were derived from the inhibition curve and the equilibrium dissociation constant (KI) values were calculated using the Cheng-Prussoff equation.

Ki | SMILES
316 nM | COc1ccc(N2C(=O)N(Cc3ccc4c(c3)OCO4)c3ccccc3S2(=O)=O)cc1OC [Example 1, 4-(1,3-benzodioxol-5-ylmethyl)-2-(3,4-dimethoxyphenyl)-2H-1,2,4-benzothiadiazin-3(4H)-one 1,1-dioxide]
141 nM | COc1ccc(CN2C(=O)N(c3ccc(OC)c(OC)c3)S(=O)(=O)c3ccccc32)cc1F [Example 2, 2-(3,4-dimethoxyphenyl)-4-(3-fluoro-4-methoxybenzyl)-2H-1,2,4-benzothiadiazin-3(4H)-one 1,1-dioxide]
447 nM | COc1cccc(CN2C(=O)N(c3cc(OC)cc(OC)c3)S(=O)(=O)c3ccccc32)c1 [Example 3, 2-(3,5-dimethoxyphenyl)-4-(3-methoxybenzyl)-2H-1,2,4-benzothiadiazin-3(4H)-one 1,1-dioxide]
355 nM | COc1ccc(N2C(=O)N(Cc3cccc(C#N)c3)c3ccccc3S2(=O)=O)cc1OC [Example 4, 3-{[2-(3,4-dimethoxyphenyl)-1,1-dioxido-3-oxo-2,3-dihydro-4H-1,2,4-benzothiadiazin-4-yl]methyl}benzonitrile]
89.1 nM | COc1ccc(N2C(=O)N(Cc3ccccc3)c3ccccc3S2(=O)=O)cc1OC [Example 5, 4-benzyl-2-(3,4-dimethoxyphenyl)-2H-1,2,4-benzothiadiazin-3(4H)-one 1,1-dioxide]
468 nM | COc1cc(OC)cc(N2C(=O)N(Cc3cccc(C)c3)c3ccccc3S2(=O)=O)c1 [Example 6, 2-(3,5-dimethoxyphenyl)-4-(3-methylbenzyl)-2H-1,2,4-benzothiadiazin-3(4H)-one 1,1-dioxide]
37.2 nM | COc1ccc(N2C(=O)N(Cc3ccc(C)cc3)c3ccccc3S2(=O)=O)cc1OC [Example 7, 2-(3,4-dimethoxyphenyl)-4-(4-methylbenzyl)-2H-1,2,4-benzothiadiazin-3(4H)-one 1,1-dioxide]
56.2 nM | COc1ccc(N2C(=O)N(Cc3ccc(F)cc3)c3ccccc3S2(=O)=O)cc1OC [Example 8, 2-(3,4-dimethoxyphenyl)-4-(4-fluorobenzyl)-2H-1,2,4-benzothiadiazin-3(4H)-one 1,1-dioxide]
35.5 nM | CSc1cccc(N2C(=O)N(Cc3cccc(Br)c3)c3ccccc3S2(=O)=O)c1 [Example 9, 4-(3-bromobenzyl)-2-[3-(methylsulfanyl)phenyl]-2H-1,2,4-benzothiadiazin-3(4H)-one 1,1-dioxide]
117 nM | COc1cccc(N2C(=O)N(Cc3ccc(OC)c(F)c3)c3ccccc3S2(=O)=O)c1 [Example 10, 4-(3-fluoro-4-methoxybenzyl)-2-(3-methoxyphenyl)-2H-1,2,4-benzothiadiazin-3(4H)-one 1,1-dioxide]
47.9 nM | CCc1cccc(N2C(=O)N(Cc3ccc(OC)c(F)c3)c3ccccc3S2(=O)=O)c1 [Example 11, 2-(3-ethylphenyl)-4-(3-fluoro-4-methoxybenzyl)-2H-1,2,4-benzothiadiazin-3(4H)-one 1,1-dioxide]
34.7 nM | Cc1ccc(N2C(=O)N(Cc3cccc(F)c3)c3ccccc3S2(=O)=O)cc1Cl [Example 12, 4-(3-fluorobenzyl)-2-(3-chloro-4-methylphenyl)-2H-1,2,4-benzothiadiazin-3(4H)-one 1,1-dioxide]
26.9 nM | COc1cc(OC)cc(N2C(=O)N(Cc3ccccc3F)c3ccccc3S2(=O)=O)c1 [Example 13, 2-(3,5-dimethoxyphenyl)-4-(2-fluorobenzyl)-2H-1,2,4-benzothiadiazin-3(4H)-one 1,1-dioxide]
200 nM | COc1cccc(N2C(=O)N(Cc3ccccc3F)c3ccccc3S2(=O)=O)c1 [Example 14, 4-(2-fluorobenzyl)-2-(3-methoxyphenyl)-2H-1,2,4-benzothiadiazin-3(4H)-one 1,1-dioxide]
29.5 nM | COc1cc(OC)cc(N2C(=O)N(Cc3ccccc3C)c3ccccc3S2(=O)=O)c1 [Example 15, 2-(3,5-dimethoxyphenyl)-4-(2-methylbenzyl)-2H-1,2,4-benzothiadiazin-3(4H)-one 1,1-dioxide]
31.6 nM | COc1cc(OC)cc(N2C(=O)N(Cc3ccccc3Cl)c3ccccc3S2(=O)=O)c1 [Example 16, 4-(2-chlorobenzyl)-2-(3,5-dimethoxyphenyl)-2H-1,2,4-benzothiadiazin-3(4H)-one 1,1-dioxide]
13.5 nM | COC(=O)c1ccc(OC)c(CN2C(=O)N(c3cc(OC)cc(OC)c3)S(=O)(=O)c3ccccc32)c1 [Example 17, methyl 3-{[2-(3,5-dimethoxyphenyl)-1,1-dioxido-3-oxo-2,3-dihydro-4H-1,2,4-benzothiadiazin-4-yl]methyl}-4-methoxybenzoate]

Ki | SMILES
14.8 nM | COc1ccc(N2C(=O)N(Cc3ccccc3C)c3ccccc3S2(=O)=O)cc1OC [Example 18, 2-(3,4-dimethoxyphenyl)-4-(2-methylbenzyl)-2H-1,2,4-benzothiadiazin-3(4H)-one 1,1-dioxide]
18.6 nM | COc1ccc(N2C(=O)N(Cc3ccccc3Cl)c3ccccc3S2(=O)=O)cc1OC [Example 19, 4-(2-chlorobenzyl)-2-(3,4-dimethoxyphenyl)-2H-1,2,4-benzothiadiazin-3(4H)-one 1,1-dioxide]
0.741 nM | COc1ccc(N2C(=O)N(Cc3c(F)cccc3Cl)c3ccccc3S2(=O)=O)cc1OC [Example 20, 4-(2-chloro-6-fluorobenzyl)-2-(3,4-dimethoxyphenyl)-2H-1,2,4-benzothiadiazin-3(4H)-one 1,1-dioxide]
23.4 nM | COc1ccc(N2C(=O)N(Cc3ccc(F)cc3Cl)c3ccccc3S2(=O)=O)cc1OC [Example 21, 4-(2-chloro-4-fluorobenzyl)-2-(3,4-dimethoxyphenyl)-2H-1,2,4-benzothiadiazin-3(4H)-one 1,1-dioxide]
23.4 nM | CSc1cccc(N2C(=O)N(Cc3ccccc3Cl)c3ccccc3S2(=O)=O)c1 [Example 22, 4-(2-chlorobenzyl)-2-[3-(methylsulfanyl)phenyl]-2H-1,2,4-benzothiadiazin-3(4H)-one 1,1-dioxide]
20.9 nM | CSc1cccc(N2C(=O)N(Cc3ccccc3F)c3ccccc3S2(=O)=O)c1 [Example 23, 4-(2-fluorobenzyl)-2-[3-(methylsulfanyl)phenyl]-2H-1,2,4-benzothiadiazin-3(4H)-one 1,1-dioxide]
7.08 nM | O=C1N(Cc2c(F)cccc2Cl)c2ccccc2S(=O)(=O)N1c1ccc(Cl)cc1 [Example 24, 4-(2-chloro-6-fluorobenzyl)-2-(4-chlorophenyl)-2H-1,2,4-benzothiadiazin-3(4H)-one 1,1-dioxide]
2.51 nM | Cc1ccc(N2C(=O)N(Cc3c(F)cccc3Cl)c3ccccc3S2(=O)=O)cc1Cl [Example 25, 4-(2-chloro-6-fluorobenzyl)-2-(3-chloro-4-methylphenyl)-2H-1,2,4-benzothiadiazin-3(4H)-one 1,1-dioxide]
79.4 nM | O=C1N(Cc2c(F)cccc2Cl)c2ccccc2S(=O)(=O)N1c1ccccc1 [Example 26, 4-(2-chloro-6-fluorobenzyl)-2-phenyl-2H-1,2,4-benzothiadiazin-3(4H)-one 1,1-dioxide]
0.631 nM | Cc1cc(C)cc(N2C(=O)N(Cc3c(F)cccc3Cl)c3ccccc3S2(=O)=O)c1 [Example 27, 4-(2-chloro-6-fluorobenzyl)-2-(3,5-dimethylphenyl)-2H-1,2,4-benzothiadiazin-3(4H)-one 1,1-dioxide]
5.62 nM | Cc1ccc(N2C(=O)N(Cc3c(F)cccc3Cl)c3ccccc3S2(=O)=O)cc1 [Example 28, 4-(2-chloro-6-fluorobenzyl)-2-(4-methylphenyl)-2H-1,2,4-benzothiadiazin-3(4H)-one 1,1-dioxide]
31.6 nM | CCOc1ccc(N2C(=O)N(Cc3c(F)cccc3Cl)c3ccccc3S2(=O)=O)cc1 [Example 29, 4-(2-chloro-6-fluorobenzyl)-2-(4-ethoxyphenyl)-2H-1,2,4-benzothiadiazin-3(4H)-one 1,1-dioxide]
20 nM | CC(=O)c1ccc(N2C(=O)N(Cc3c(F)cccc3Cl)c3ccccc3S2(=O)=O)cc1 [Example 30, 2-(4-acetylphenyl)-4-(2-chloro-6-fluorobenzyl)-2H-1,2,4-benzothiadiazin-3(4H)-one 1,1-dioxide]
10.5 nM | Cc1cccc(N2C(=O)N(Cc3c(F)cccc3Cl)c3ccccc3S2(=O)=O)c1 [Example 31, 4-(2-chloro-6-fluorobenzyl)-2-(3-methylphenyl)-2H-1,2,4-benzothiadiazin-3(4H)-one 1,1-dioxide]
28.2 nM | Cc1ccc(C)c(N2C(=O)N(Cc3c(F)cccc3Cl)c3ccccc3S2(=O)=O)c1 [Example 32, 4-(2-chloro-6-fluorobenzyl)-2-(2,5-dimethylphenyl)-2H-1,2,4-benzothiadiazin-3(4H)-one 1,1-dioxide]
28.2 nM | CCc1ccccc1N1C(=O)N(Cc2c(F)cccc2Cl)c2ccccc2S1(=O)=O [Example 33, 4-(2-chloro-6-fluorobenzyl)-2-(2-ethylphenyl)-2H-1,2,4-benzothiadiazin-3(4H)-one 1,1-dioxide]
